# Source: patent publication US20250101003A1, “SPIROCYCLIC CAV2.3 ANTAGONISTS” (LARIO THERAPEUTICS LIMITED, priority 2021, published 2025)
# Molecular target: Cav2.3 (Homo sapiens, UniProt Q15878)
# Experiment: Human Cav2.3 channel calcium-influx assay
# Type: cell-based
# Settings: HEK-293 T-Rex/Kir2.1/Cav2.3e-β4-α2δ1 cells, Fluo8 fluorescence, without pluronic acid; read-out: Cav2.3 (pIC50) (converted)
# Procedure: HEK-293 T-Rex cells were transfected with pcDNA3.1-Kir2.1 to generate a stable cell line. After antibiotic selection, the obtained stable pools were analysed using FLIPR^TETRA (membrane potential assay), and a limiting dilution was performed and a HEK-293 T-Rex/Kir2.1 clone was selected. The clone was transfected with pcDNA3.1-Cav2.3e and pBud-Cav-β4-α2δ1 to generate a stable cell line where the Cav2.3e expression is inducible. After antibiotic selection, functional clone pool analysis and two successive limiting dilutions, the final clone underwent a qPCR analysis and a biophysical and pharmacological validation using patch-clamp.
# A compound plate, containing 10 test compounds in eight-points dose response with n=4, was prepared. Test compounds dose response curves were prepared in automated fashion in 100% DMSO at CyBio Felix and starting from a stock solution in 100% DMSO; a defined volume was serially moved into destination wells pre-filled with the desired DMSO volume; stock solution concentration volumes were dependent on the final compounds concentrations to be tested and the final DMSO content used in the assay. For the assay test compounds dose response curves ranged from 30 μM and half log dilution with 0.3% final DMSO. In order to obtain the 8-points dose response curve all the concentrations were created by starting from a 10 mM DMSO stock solution and then moving 9.5 μL into a destination well pre-filled with 20.5 μL of 100% DMSO and repeating this step seven times. This initial step was done into 96 MTP plates, 10 compounds/plate. One 384 MTP was then reformatted to contain all the 10 compounds at 8 concentrations, quadruplicate data points. This so obtained 384 MTP compound plate served as source plate in a “mother to child” process with a CyBi®-Well dispenser in which 0.7 μL of compounds were moved into a destination plate pre-filled with 57.6 μL of Tyrode's buffer 0 mM K+, thus obtaining 4× concentrated compounds solution. In columns 1-2 and 23-24 the control wells were added. Both “source” compound plate and “destination” compound plate were barcoded and a relationship between the two plates was thus generated.
# The day before the experiment, cells were detached by gentle wash with DPBS, followed by 5 min incubation at 37° C. with Trypsin solution. Detached cells were diluted with OptiMEM+Doxycycline at 0.2 μg/mL, counted and plated in Poly-D-Lysine coated black/clear bottom (15.000 c/well in 20 μl/well) by the use of a MATRIX WellMate dispenser. Plates were placed into a humidified incubator at 37° C. with 5% CO2 until the experimental day. 24 h after seeding 10 μL/well of 1.5× Fluo8 NW dye solution prepared in Tyrode's buffer 0 mM K^+ were added on top of the seeding medium. Cell plates were incubated for 40-60 min at RT in the dark. We then Injected off-line 10 μL/well of test compounds and controls 4× concentrated in Tyrode's Buffer 0 mM K+ with the CyBi®-Well instrument. Cell plates were incubated 3 minutes at RT. Finally, we injected 20 μL/well of 3× concentrated activator solution (K20-Na130-Ca2 buffer: 20 mM KCl, 130 mM NaCl, 2 mM CaCl2, 10 mM HEPES, 10 mM Glucose, final concentrations, prepared starting from “KO-Na150-Ca2” and “K150-Na0-Ca2” buffers) at FDSS7000EX instrument and read emitted fluorescence for 130 seconds.
# Data analysis was performed with Genedata Screener® software and reported compounds activity as % effect in relation to the normalization standards. The Kinetic Response Value (KRV) is calculated as follows:
# KRV=Maximal fluorescence recorded from second 5 to second 130 minus baseline fluorescence, computed as average from second 1 to second 2, of the kinetic trace. The KRV was normalized versus Neutral Controls and Inhibitor Controls in order to obtain the Activity[%] for each well. […] Therefore, the compound activity values were scaled (based on the two references) to a common range (two-point normalization). […]
# Chain of Cav2.3 (Q15878 1-747 limits assumed): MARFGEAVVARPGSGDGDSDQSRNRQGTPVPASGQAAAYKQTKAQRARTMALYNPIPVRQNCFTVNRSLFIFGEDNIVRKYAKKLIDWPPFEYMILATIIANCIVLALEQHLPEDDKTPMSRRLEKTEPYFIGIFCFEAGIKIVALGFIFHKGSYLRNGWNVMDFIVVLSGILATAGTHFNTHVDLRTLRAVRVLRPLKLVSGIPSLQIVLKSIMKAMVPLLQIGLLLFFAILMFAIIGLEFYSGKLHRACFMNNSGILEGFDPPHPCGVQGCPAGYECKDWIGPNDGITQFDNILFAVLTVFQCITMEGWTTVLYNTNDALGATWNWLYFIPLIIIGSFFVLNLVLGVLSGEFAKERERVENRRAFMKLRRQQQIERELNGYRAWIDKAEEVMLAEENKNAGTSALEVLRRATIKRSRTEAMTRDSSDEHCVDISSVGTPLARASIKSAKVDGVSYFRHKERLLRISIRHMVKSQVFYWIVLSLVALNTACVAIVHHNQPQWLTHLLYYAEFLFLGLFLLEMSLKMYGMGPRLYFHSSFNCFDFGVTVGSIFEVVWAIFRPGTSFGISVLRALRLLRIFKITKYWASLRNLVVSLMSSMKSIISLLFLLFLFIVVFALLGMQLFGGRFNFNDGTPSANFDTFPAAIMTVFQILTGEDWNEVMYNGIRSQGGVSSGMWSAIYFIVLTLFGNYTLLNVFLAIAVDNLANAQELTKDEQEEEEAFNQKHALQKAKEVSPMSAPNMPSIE
# Chain of Cav2.3 (Q15878 1126-2313 limits assumed): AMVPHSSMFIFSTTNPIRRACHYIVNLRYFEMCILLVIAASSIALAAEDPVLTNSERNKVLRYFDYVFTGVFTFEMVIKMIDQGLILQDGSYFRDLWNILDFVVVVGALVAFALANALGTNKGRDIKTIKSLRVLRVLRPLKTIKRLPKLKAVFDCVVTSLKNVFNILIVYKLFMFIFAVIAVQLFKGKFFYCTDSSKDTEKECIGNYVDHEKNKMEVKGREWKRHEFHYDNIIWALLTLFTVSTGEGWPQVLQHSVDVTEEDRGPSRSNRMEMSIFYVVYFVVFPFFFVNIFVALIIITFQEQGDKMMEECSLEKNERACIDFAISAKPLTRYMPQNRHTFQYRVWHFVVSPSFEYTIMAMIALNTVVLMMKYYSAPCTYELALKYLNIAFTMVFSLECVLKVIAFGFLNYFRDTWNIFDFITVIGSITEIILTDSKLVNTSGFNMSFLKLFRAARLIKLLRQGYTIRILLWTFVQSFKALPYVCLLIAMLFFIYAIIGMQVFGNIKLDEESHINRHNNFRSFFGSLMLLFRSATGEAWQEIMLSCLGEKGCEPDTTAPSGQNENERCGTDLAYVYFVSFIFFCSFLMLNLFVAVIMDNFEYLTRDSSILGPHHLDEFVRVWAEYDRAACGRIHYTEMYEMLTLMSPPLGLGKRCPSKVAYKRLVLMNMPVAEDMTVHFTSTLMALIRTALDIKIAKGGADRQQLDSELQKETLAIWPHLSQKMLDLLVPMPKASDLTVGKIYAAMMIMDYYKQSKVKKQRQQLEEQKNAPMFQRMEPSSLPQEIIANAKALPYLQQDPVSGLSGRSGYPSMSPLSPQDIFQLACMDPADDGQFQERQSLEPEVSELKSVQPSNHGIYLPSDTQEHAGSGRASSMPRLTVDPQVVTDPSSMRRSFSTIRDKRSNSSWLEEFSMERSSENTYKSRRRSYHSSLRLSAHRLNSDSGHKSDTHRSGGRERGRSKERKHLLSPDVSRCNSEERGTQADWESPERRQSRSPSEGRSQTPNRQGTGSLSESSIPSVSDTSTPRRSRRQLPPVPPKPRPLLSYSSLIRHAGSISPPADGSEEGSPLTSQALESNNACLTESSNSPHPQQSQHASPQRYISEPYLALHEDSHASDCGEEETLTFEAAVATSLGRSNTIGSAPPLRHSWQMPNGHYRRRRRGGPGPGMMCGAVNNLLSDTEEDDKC
row,SMILES,IC50 [µM]
1,"Cc1nc(C)c(S(=O)(=O)N2CC3(CCC3)CC2C)s1 (single isomer, unassigned) [Example 107, 2,4-dimethyl-5-((7-methyl-6-azaspiro[3.4]octan-6-yl)sulfonyl)thiazole]",6.76
2,"CC1CC2(CCC2)CN1S(=O)(=O)Cc1ccccc1 (centres unmarked) [Example 2, 6-(Benzylsulfonyl)-7-methyl-6-azaspiro[3.4]octane]",4.27
3,"CC1CC2(CCC2)CN1S(=O)(=O)c1ccc2c(c1)OCCCO2 (centres unmarked) [Example 4, 6-((3,4-Dihydro-2H-benzo[b][1,4]dioxepin-7-yl)sulfonyl)-7-methyl-6-azaspiro[3.4]octane]",4.17
4,"CC1CC2(CCC2)CN1S(=O)(=O)c1ccc2c(c1)OCCO2 (centres unmarked) [Example 5, 6-((2,3-Dihydrobenzo[b][1,4]dioxin-6-yl)sulfonyl)-7-methyl-6-azaspiro[3.4]octane]",2.95
5,"CC1CC2(CCC2)CN1S(=O)(=O)c1ccc2c(c1)CN(C(=O)C(F)(F)F)CC2 (centres unmarked) [Example 18, 2,2,2-Trifluoro-1-(7-((7-methyl-6-azaspiro[3.4]octan-6-yl)sulfonyl)-3,4-dihydroisoquinolin-2(1H)-yl)ethan-1-one]",2.45
6,"CC1CC2(CCC2)CN1S(=O)(=O)c1ccc2c(c1)CCN(Cc1ccccc1)C2 (centres unmarked) [Example 25, 2-Benzyl-6-((7-methyl-6-azaspiro[3.4]octan-6-yl)sulfonyl)-1,2,3,4-tetrahydroisoquinoline]",2.95
7,"CC1CC2(CCC2)CN1S(=O)(=O)c1ccc2c(c1)CN(c1ccccc1)CC2 (centres unmarked) [Example 29, 7-((7-Methyl-6-azaspiro[3.4]octan-6-yl)sulfonyl)-2-phenyl-1,2,3,4-tetrahydroisoquinoline]",4.79
8,"CCC1CC2(CCC2)CN1S(=O)(=O)c1ccc2c(c1)CN(C(=O)C(C)C)CC2 (centres unmarked) [Example 34, 1-(7-((7-Ethyl-6-azaspiro[3.4]octan-6-yl)sulfonyl)-3,4-dihydroisoquinolin-2(1H)-yl)-2-methylpropan-1-one]",1.1
9,"CCC1CC2(CCC2)CN1S(=O)(=O)c1ccc2ccsc2c1 (centres unmarked) [Example 35, 6-(Benzo[b]thiophen-6-ylsulfonyl)-7-ethyl-6-azaspiro[3.4]octane]",3.8
10,"CC(=O)Nc1nnc(S(=O)(=O)N2CC3(CCC3)CC2C)s1 (centres unmarked) [Example 40, N-(5-((7-methyl-6-azaspiro[3.4]octan-6-yl)sulfonyl)-1,3,4-thiadiazol-2-yl)acetamide]",8.32
11,"CC1CC2(CCC2)CN1S(=O)(=O)c1cccc2c1OC(F)(F)O2 (centres unmarked) [Example 41, 6-((2,2-Difluorobenzo[d][1,3]dioxol-4-yl)sulfonyl)-7-methyl-6-azaspiro[3.4]octane]",8.32
12,"O=S(=O)(c1cccs1)N1CC2(CCC2)CC1CO (centres unmarked) [Example 42, (6-(Thiophen-2-ylsulfonyl)-6-azaspiro[3.4]octan-7-yl)methanol]",24.5
13,"COCC1CC2(CCC2)CN1S(=O)(=O)c1cccs1 (centres unmarked) [Example 43, 7-(Methoxymethyl)-6-(thiophen-2-ylsulfonyl)-6-azaspiro[3.4]octane]",10.2
14,"CC1CC2(CCC2)CN1S(=O)(=O)c1cc(-c2ccccc2)cs1 (centres unmarked) [Example 44, 7-Methyl-6-((4-phenylthiophen-2-yl)sulfonyl)-6-azaspiro[3.4]octane]",6.76
15,"CC1(C)CC2(CCC2)CN1S(=O)(=O)c1ccsc1 [Example 49, 7,7-Dimethyl-6-(thiophen-3-ylsulfonyl)-6-azaspiro[3.4]octane]",3.89
16,"CCC1CC2(CCC2)CN1S(=O)(=O)c1ccc2c(c1)OC(F)(F)O2 (centres unmarked) [Example 50, 6-((2,2-Difluorobenzo[d][1,3]dioxol-5-yl)sulfonyl)-7-ethyl-6-azaspiro[3.4]octane]",9.33
17,"CCc1nc2cc(S(=O)(=O)N3CC4(CCC4)CC3CC)ccc2o1 (centres unmarked) [Example 51, 2-Ethyl-5-((7-ethyl-6-azaspiro[3.4]octan-6-yl)sulfonyl)benzo[d]oxazole]",2.75
18,"CC(C)C(=O)N1Cc2ccc(S(=O)(=O)N3CC4(CCC4)CC3C)cc2C1 (centres unmarked) [Example 52, 2-methyl-1-(5-((7-methyl-6-azaspiro[3.4]octan-6-yl)sulfonyl)isoindolin-2-yl)propan-1-one]",2
19,"CC1CC2(CCC2)CN1S(=O)(=O)c1cc2oc(=O)[nH]c2cc1Cl (centres unmarked) [Example 56, 5-Chloro-6-((7-methyl-6-azaspiro[3.4]octan-6-yl)sulfonyl)benzo[d]oxazol-2(3H)-one]",8.32
20,"CC1CC2(CCC2)CN1S(=O)(=O)c1ccc2[nH]c(=O)[nH]c2c1 (centres unmarked) [Example 59, 5-((7-Methyl-6-azaspiro[3.4]octan-6-yl)sulfonyl)-1,3-dihydro-2H-benzo[d]imidazol-2-one]",11.2
21,"CC1CCC2(CCC2)CN1S(=O)(=O)c1cccs1 (centres unmarked) [Example 60, 7-Methyl-6-(thiophen-2-ylsulfonyl)-6-azaspiro[3.5]nonane]",4.79
22,"CCC1CC2(CCC2)CN1S(=O)(=O)c1ccc2c(c1)S(=O)(=O)CC2 (centres unmarked) [Example 61, 6-((7-Ethyl-6-azaspiro[3.4]octan-6-yl)sulfonyl)-2,3-dihydrobenzo[b]thiophene 1,1-dioxide]",1.78
23,"CCc1ncsc1S(=O)(=O)N1CC2(CCC2)CC1C (centres unmarked) [Example 64, 4-Ethyl-5-((7-methyl-6-azaspiro[3.4]octan-6-yl)sulfonyl)thiazole]",3.72
24,"CC1CC2(CCC2)CN1S(=O)(=O)c1cc2ccccc2o1 (centres unmarked) [Example 66, 6-(Benzofuran-2-ylsulfonyl)-7-methyl-6-azaspiro[3.4]octane]",9.12

# The next lines start with the values.
row,IC50 [µM],SMILES
1,30.2,"CC1CC2(CCC2)CN1S(=O)(=O)c1nccn1C (centres unmarked) [Example 3, 7-Methyl-6-((1-methyl-1H-imidazol-2-yl)sulfonyl)-6-azaspiro[3.4]octane]"
2,2.57,"CC1CC2(CCC2)CN1S(=O)(=O)c1ccc(C#N)s1 (centres unmarked) [Example 8, 5-((7-Methyl-6-azaspiro[3.4]octan-6-yl)sulfonyl)thiophene-2-carbonitrile]"
3,3.24,"CC1CC2(CCC2)CN1S(=O)(=O)c1ccncc1 (centres unmarked) [Example 11, 7-Methyl-6-(pyridin-4-ylsulfonyl)-6-azaspiro[3.4]octane]"
4,46.8,"CC1CC2(CCC2)CN1S(=O)(=O)c1ncccn1 (centres unmarked) [Example 14, 7-Methyl-6-(pyrimidin-2-ylsulfonyl)-6-azaspiro[3.4]octane]"
5,1.86,"CC1CC2(CCC2)CN1S(=O)(=O)c1ccc2ccoc2c1 (centres unmarked) [Example 15, 6-(Benzofuran-6-ylsulfonyl)-7-methyl-6-azaspiro[3.4]octane]"
6,5.25,"CC1CC2(CCC2)CN1S(=O)(=O)c1ccco1 (centres unmarked) [Example 36, 6-(Furan-2-ylsulfonyl)-7-methyl-6-azaspiro[3.4]octane]"
7,10.7,"CC1CC2(CCC2)CN1S(=O)(=O)c1cnccn1 (centres unmarked) [Example 39, 7-methyl-6-(pyrazin-2-ylsulfonyl)-6-azaspiro[3.4]octane]"
8,3.39,"CC1CC2(CCC2)CN1S(=O)(=O)c1ccccc1 (centres unmarked) [Example 45, 7-Methyl-6-(phenylsulfonyl)-6-azaspiro[3.4]octane]"
9,15.8,"CC1CC2(CCC2)CN1S(=O)(=O)c1ccccn1 (centres unmarked) [Example 48, 7-Methyl-6-(pyridin-2-ylsulfonyl)-6-azaspiro[3.4]octane]"
10,4.9,"Cc1ccc(S(=O)(=O)N2CC3(CCC3)CC2C)o1 (centres unmarked) [Example 53, 7-Methyl-6-((5-methylfuran-2-yl)sulfonyl)-6-azaspiro[3.4]octane]"
11,3.98,"CC1CC2(CCC2)CN1S(=O)(=O)c1ccc2c(c1)COC2 (centres unmarked) [Example 65, 6-((1,3-Dihydroisobenzofuran-5-yl)sulfonyl)-7-methyl-6-azaspiro[3.4]octane]"
